Measured values reported in patent US5451411A, “Methods and compositions for the oral delivery of therapeutic agents” (University of Washington, priority 1993, dated 1995).

Experiments:
[1] = system: mouse anti-TGF-β1 monoclonal antibody, 1D11; assay: ELISA measured binding activity (immunoreactivity) of TGF-β1
Procedure: The ability of released TGF-β1 from both untreated and acid treated beads (as described above) to be recognized (bound) by a monoclonal antibody was assayed by ELISA as follows. An enzyme linked immunosorbent assay (ELISA) was used to quantitate the amount of immunoreactive TGF-β1 released from the untreated (PBS) and acid treated (HCl) alginate beads. The ELISA was based on the ability of a mouse anti-TGF-β1 monoclonal antibody, 1D11 (Bristol-Myers Squibb, Seattle, WA), to bind to the TGF-β1 molecule. When the 1D11 antibody was coated on 96-well immunoassay plates it captured TGF-β1 from the applied sample and standard solutions. Captured TGF-β1 was then bound by biotinylated 1D11 antibody which in turn was bound by a horseradish peroxidase/avidin D conjugate (Vector Labs cat #A-2004). A color reaction occurred by adding a chromophore/substrate solution of 3,3',5,5'-tetramethylbenzidine in CPB containing hydrogen peroxide. The reaction was stopped with the addition of 1 N sulfuric acid and the A450 was determined by a plate reader. Concentrations of the unknown samples were quantified relative to a TGF-β1 standard curve run on the same plate.
The immunoreactivity of TGF-β1 in solution in the presence of anionic amino acids, polyanions and polycations was studied using the ELISA procedure described in Example 2. To 1 mg/mL solutions of TGF-β1 in 5 mM HCl was added from 0 to 0.14%(w/v) of glutamic acid, aspartic acid, poly-L-aspartic acid (PLAA, Mw=13 kDa), sodium carboxymethyl cellulose (Na CMC, high viscosity), or polyacrylic acid (PAA, 2, 90 or 750 kDa). The reactivity of the TGF-β1 was then determined by the ELISA procedure, as described in Example 2.
Next, the ability of the additives to […] was investigated. Alginate solutions were prepared in accordance with the procedure of Example 1, incorporating 50 μg of TGF-β1, 0-0.15% (w/v) of sodium alginate and 0.1-1.0 mg (up to 0.125% w/v) of PAA (750 kDa), PLAA (13 kDa), NaCMC high viscosity or glutamic acid. The immunoreactivity of TGF-β1 was determined by ELISA as described in Example 2.
Alginate beads were prepared according to the procedure of Example 1 incorporating 50 μg TGF-β1 and 0.1-1.0 mg of additives. […] In addition, Poly-L-Lysine (PLL;123 kDa) was incorporated as a potential polycationic competitor. The additives were incorporated at an alginate:additive w/w ratio of from 75:10 to 75:1 as indicated below in Table 3.
To further assess the effect of amount of PAA incorporation on immunoreactivity of released TGF-β1, alginate beads were prepared by incubating TGF-β1 and PAA (90 kDa) for either 5 or 60 minutes (see FIG. 7) in w/w ratios of 75:1, 75:6 and 75:10, followed by dilution, addition of alginate, and bead formation in 1% CaCl2. The beads were acid treated in 0.1 N HCl at 37° C. for 30 minutes and then incubated at 37° C. in PBS, pH 7.4.

[2] = system: proliferating cell nuclear antigen (PCNA); assay: Cell proliferation in intestinal crypts (PCNA immunohistochemistry, proliferating index); type: in vivo, Sprague-Dawley rats; settings: TGF-β1 I.P. or P.O. in PBS
Procedure: Adult male Sprague-Dawley rats (250±30 g) were caged individually and handled according to the guidelines of American Association for the Accreditation of Laboratory Animal Care (AAALAC). For peroral administration of TGF-β1, the rats were anesthetized with intramuscularly injected ketamine-HCl (40 mg/kg) (Vetalar®, Aveco Inc., Fort Dodge, Iowa) and a catheter was inserted into the stomach perorally to exclude the failure of the formulation to reach stomach and intestine. Intraperitoneal injections were performed into the lower right quadrant of the abdomen. […]
Cell proliferation was quantified using immunohistochemical techniques for detecting proliferating cell nuclear antigen (PCNA), an endogenous marker of proliferating cells. […] The proliferating index (PI) was calculated as the number of epithelial cells in G1, S, G2 or M phase of the cell cycle per length (ram) of crypts counted. Four 0.25 mm areas (1 mm total) were scored for cell proliferation.

Effect of hydrolysis time on ELISA measured binding activity of TGF-β1 ([1]; 0.1 N HCl, 37° C., 0.25-24 hr): no significant differences
TGF-β1 released and immunoreactive (ELISA) ([1]; acid treated beads 75:10 w/w PAA 90 kDa, PBS pH 7.4): over 80%
% Binding Activity of released TGF-β1, HCl ([1]; alginate beads acid treated in 0.1 N HCl, no additive): 14%
% Binding Activity of released TGF-β1, PBS ([1]; alginate beads not acid treated (PBS), no additive): 0%
ELISA binding activity of TGF-β1 released from beads alone, in words ([1]; beads without PAA): no binding activity
Immunoreactivity of TGF-β1, in words ([1]; released from calcium-alginate beads, in presence of alginate alone, or in presence of PAA (750 kDa)): little immunoreactivity
Immunoreactivity of TGF-β1 with alginate, in words ([1]; solution, 0.015% alginate, no additive): no immunoreactivity
% Active TGF-β1, 0% alginate ([1]; solution, % Alginate (w/v) 0): 100%
% Active TGF-β1, 0.0015% alginate ([1]; solution, % Alginate (w/v) 0.0015): 65%
% Active TGF-β1, 0.015% alginate ([1]; solution, % Alginate (w/v) 0.015): 0%
% Active TGF-β1, 0.15% alginate ([1]; solution, % Alginate (w/v) 0.15): 0%
Substance: TGF-β1: TGF-β1 (1 mg/mL in 5 mM HCl) obtained from Bristol-Myers Squibb (Seattle, WA)
PCNA staining [2]: moderate staining
